Laboratory results published in publication PMC8398779, “VEGFR-Mediated Cytotoxic Activity of Pulicaria undulata Isolated Metabolites: A Biological Evaluation and In Silico Study” (Life, 2021).
Values after ≈ are worked out from the molar mass of the structure shown.

Legend:
normal Vero cell line = assay: Sulphorhodamine B (SRB) assay on normal Vero cell line; conditions: Chlorocebus sabaeus, 48 h
VEGF-B = assay: Serum VEGF-B by ELISA in EAC-bearing mice; type: in vivo, Swiss albino female mice; conditions: day 21, extract 200 mg/kg PO, compounds 50 mg/kg PO, days 7-21, vs control EAC
Description: (§1) Swiss albino female mice obtained from the Egyptian Organization for Biological Products and Vaccines (Vacsera, Egypt), and weighing 25–30 g were used. The mice were kept in plastic cages with mesh floor and hardwood bedding at 25 °C temperature under normal light/dark cycle, with water and food provided ad libitum. Mice were left to acclimatize for 1 week before the experiments. They were randomly divided into nine groups (7 mice each). The first group served as the normal group and received saline. EAC cells were inoculated in all other groups. Group 2 was considered the EAC control. Group 3 received (200 mg/kg) of P. undulata extract PO three times weekly. Groups (4–9) received (50 mg/kg) of Xanthoxyline, Oleanolic acid, Stigmasterol, Salvigenin, Rhamnetin and Dihydroquercetin 4′-methyl ether, respectively, PO three times daily. All compounds were dissolved in saline.
(§2) The day of tumor inoculation was considered as day zero (0). Treatment of groups (3–9) started at the 7th day after tumor inoculation, and continued for 2 weeks until day 21. The in vivo study was in accordance with the Guide for the Care and Use of Laboratory animals. The study protocol was approved by the ethical committee of Faculty of Pharmacy, Suez Canal University (code of approval 20201907RA2)
On the 21st day of EAC cells inoculation, blood samples were collected under light ether anesthesia from the orbital sinus (retro-orbital plexus). The blood samples were left to clot for 20 min followed by separation of the serum by centrifugation at 4000 rpm for 15 min. Mice were sacrificed by cervical dislocation and tumor discs were separated, weighed and fixed in 10% neutral buffered formalin for immunohistochemical investigations.
Serum samples were stored at (−20 °C) and used for determination of the level of VEGF-B by ELISA kit (ab213897) (Abcam, Cambridge, UK) according to the manufacturer’s protocol.

[1] = tested on: breast cancer cell line (MCF-7); assay: Sulphorhodamine B (SRB) antiproliferative assay on MCF-7; conditions: Homo sapiens, MCF7, 48 h
Description: The potential cytotoxic activities of the P. undulata extract and isolated compounds against breast cancer cell line (MCF-7) were evaluated using a Sulphorhodamine-B (SRB) assay.

CD34 = assay: Immunohistochemistry of CD34 expression in EAC tumor tissue; type: in vivo, Swiss albino female mice; conditions: day 21, extract 200 mg/kg PO, compounds 50 mg/kg PO, vs control EAC
Description: as §1, §2
On the 21st day of EAC cells inoculation, blood samples were collected under light ether anesthesia from the orbital sinus (retro-orbital plexus). The blood samples were left to clot for 20 min followed by separation of the serum by centrifugation at 4000 rpm for 15 min. […]
(§3) For immunohistochemical examination, the tumor discs were fixed in 10% neutral buffered formalin overnight and then embedded in paraffin. When analyzed, all paraffin-embedded tissues were sectioned at 4-μm, deparaffinized in xylene, and hydrated through graded ethyl alcohol series in decreasing concentrations (100%, 90%, 80% and 70%). […] The expression of VEGFR-2 and CD34 were assessed and percentage of stained area was measured.

VEGFR-2 = assay: Immunohistochemistry of VEGFR-2 expression in EAC tumor tissue; type: in vivo, Swiss albino female mice; conditions: day 21, extract 200 mg/kg PO, compounds 50 mg/kg PO, vs control EAC
Description: as §1
The day of tumor inoculation was considered as day zero (0). […]
as §3

[2] = tested on: Ehrlich ascites carcinoma (EAC) solid tumors; assay: Weight of EAC solid tumors in mice; type: in vivo, Swiss albino female mice; conditions: day 21, extract 200 mg/kg PO, compounds 50 mg/kg PO, days 7-21, vs control EAC
Description: Cells of EAC were purchased from Tumor Biology Department, National Cancer Institute, Cairo University. EAC is a murine spontaneous breast cancer that served as the original tumor from which an ascites variant was obtained. Ascetic fluid was aspired under aseptic conditions from the peritoneal cavity of tumor-bearing mice. The viability and contamination of EAC cells were tested using trypan blue dye exclusion technique. Trypan blue dye stains dead cells only. EAC cells with 90% viability or more were suspended in normal saline (2.5 × 10^6 cells/0.1 mL). The mice were inoculated intradermally with 0.l ml EAC suspension on the lower ventral side after shaving.
as §1, with “Groups (4–9) received (50 mg/kg) of Xanthoxyline, Oleanolic acid, Stigmasterol, Salvigenin, Rhamnetin and Dihydroquercetin 4′-methyl ether, respectively, PO three times daily. All compounds were dissolved in saline.” left out

IC50 [1] | SMILES | IC50 (normal Vero cell line) | serum VEGF-B levels (VEGF-B) | CD34 expression (immunohistochemistry, stained area) (CD34) | VEGFR-2 expression (immunohistochemistry, stained area) (VEGFR-2) | tumor weight [2]
23.5 ± 0.09 µg/mL (≈ 120 µM) | COc1cc(O)c(C(C)=O)c(OC)c1 [Compound 1, 2-hydroxy-4,6-dimethoxyacetophenone] | 46 ± 0.28 µg/mL (≈ 234 µM) | nearly normalize VEGF-B levels |  |  | 
30 ± 0.14 µg/mL (≈ 65.7 µM) | CC1(C)CC[C@]2(C(=O)O)CC[C@]3(C)C(=CC[C@@H]4[C@@]5(C)CC[C@H](O)C(C)(C)[C@@H]5CC[C@]43C)[C@@H]2C1 [Compound 3, Oleanolic acid] | > 50 µg/mL |  |  | significantly (p < 0.05) lowered VEGFR-2 expression | 
18 ± 0.08 µg/mL (≈ 54.8 µM) | COc1ccc(-c2cc(=O)c3c(O)c(OC)c(OC)cc3o2)cc1 [Compound 4, 5-hydroxy-4’,6,7-trimethoxyflavone] | > 50 µg/mL | nearly normalize VEGF-B levels | poor expression of CD34 |  | 
18.5 ± 0.12 µg/mL (≈ 58.5 µM) | COc1cc(O)c2c(=O)c(O)c(-c3ccc(O)c(O)c3)oc2c1 [Compound 5, 5,3’,4’-trihydroxy-7 methoxyflavonol] | > 50 µg/mL | nearly normalize VEGF-B levels | least expression of CD34 | lowest expression | least tumor weights
22.5 ± 0.06 µg/mL (≈ 70.7 µM) | COc1ccc(C2Oc3cc(O)cc(O)c3C(=O)C2O)cc1O (stereo not drawn) [Compound 6, dihydroquercetin 4′-methyl ether] | > 50 µg/mL |  |  |  | least tumor weights
 | COc1cccc2c1C(=O)c1c(O)c3c(c(O)c1C2=O)C[C@@](O)(C(=O)CO)C[C@@H]3O[C@H]1C[C@H](N)[C@H](O)[C@H](C)O1 [Doxo, doxorubicin, reference compound] | 24.9 ± 0.17 µg/mL (≈ 45.8 µM) |  |  |  | 

SMILES | IC50 [1] | IC50 (normal Vero cell line) | serum VEGF-B levels (VEGF-B) | CD34 expression (immunohistochemistry, stained area) (CD34) | VEGFR-2 expression (immunohistochemistry, stained area) (VEGFR-2) | tumor weight [2]
CC[C@H](/C=C/[C@@H](C)[C@H]1CC[C@H]2[C@@H]3CC=C4C[C@@H](O)CC[C@]4(C)[C@H]3CC[C@]12C)C(C)C [Compound 2, Stigmasterol] | 47 ± 0.06 µg/mL (≈ 114 µM) | > 50 µg/mL | nearly normalize VEGF-B levels | poor expression of CD34 |  | 
